Reference: US20090312250A1 (POSTECH ACADEMY-INDUSTRY FOUNDATION, priority 2006, published 2009)

What was measured:
PLD = PLD activity assay in MIN6 cells (PBt formation); type: cell-based, mouse; settings: for effect on EGF-induced PLD activity: 30 min pre-incubation, then 15 nM EGF for 1 min
Method: PLD Activity Assay in Cells: Cells grown in 6-well plates were washed twice with KRB, and then labeled with [3H]myristic acid for 4 h at 37° C. in the KRB solution. PLD activity was assayed by measuring the formation of phosphatidylbutanol (PBt) (Kim J H et al., J Immunol 163:5462-5470, 1999). The intensities of PBt spots in the presence of 0.4% 1-butanol were measured, and PLD activity was obtained by subtracting the corresponding intensities of spots obtained in the absence of 1-butanol.
In FIG. 3A, the MIN6 cells were plated onto 6-well plates and grown for 24 h. The cells were washed twice with KRB, and then incubated for 4 h at 37° C. in the KRB solution in the presence of [^3H]myristic acid. […] The data shown are the mean±S.D. from two independent assays by duplicate.
In FIG. 4A, the MIN6 cells were plated onto 6-well plates and grown for 24 h. The cells were washed twice with KRB, and then incubated for 4 h at 37° C. in the KRB solution in the presence of [^3H]myristic acid. […] The intensities of PBt spots after 1 min accumulation in the presence of 1-butanol were measured, and results were obtained by subtracting the corresponding intensities of spots obtained in the absence of 1-butanol. The data shown are the mean±S.D. from two independent assays by duplicate. *, P<0.05 compared with EGF-treated cells.

MIN6 cells [1] = test: Insulin secretion assay in MIN6 cells; type: cell-based, mouse; settings: for effect on EGF-induced insulin secretion: pre-treatment, then 15 nM EGF for 1 min, butanols 0.4%, 10 min
Method: Cell Culture The mouse insulin-producing cells MIN6m9 provided by Dr. Susumu Seino (Division of Cellular and Molecular Medicine, Kobe University Graduate School of Medicine, Kobe, Japan) were used between passages 19 and 25 and cultured in DMEM containing 25 mM glucose, 10 mM HEPES, 10% (v/v) fetal calf serum, 50 IU/ml penicillin, and 50 μg/ml streptomycin at 37° C. in a humidified CO2-controlled (5%) incubator. MIN6 cells were transfected using LipofectAMINE, as described previously (Kim et al., J Immunol 163:5462-5470, 1999) Transfection efficiency is about 30-40% by using LipofectAMINE.
(§1) Insulin Secretion Assay: Batches of 10-15 isolated islets or 1×10^6 cells/well grown in 12- or 24-well plates were washed twice with KRB supplemented with 0.2% bovine serum albumin (BSA), and then incubated for 60 min at 37° C. in the KRB solution. We used same number of islets in a same set of experiment. At the end of incubation, the solutions were replaced with fresh KRB containing test reagents and incubated for the designated time. The incubation medium was sampled and centrifuged to remove cells, and the supernatant was assayed for insulin with a radioimmunoassay (RIA) kit (Linco, St. Louis, Mo.).
The MIN6 cells were plated onto 24-well plates and grown for 24 h. The cells were washed twice with KRB supplemented with 0.2% BSA, and then incubated for 60 min at 37° C. in the KRB solution.
The incubation medium was sampled and centrifuged to remove cells, and the supernatant was assayed for insulin levels. The data shown are the mean±S.D. from two independent assays by duplicate. *, P<0.05 compared with not treated (NT) cells.
The incubation medium was sampled and centrifuged to remove cells, and the supernatant was assayed for insulin levels. The data shown are the mean±S.D. from two independent assays by duplicate. *, P<0.05 compared with not treated cells.
The incubation medium was sampled and centrifuged to remove cells, and the supernatant was assayed for insulin levels. The data shown are the mean±S.D. from two independent assays by duplicate. * or **, P<0.05 compared with 2.7 or 11 mM glucose-treated cells.
The incubation medium was sampled and centrifuged to remove cells, and the supernatant was assayed for insulin levels.
In FIG. 3B, the MIN6 cells were plated onto 24-well plates and grown for 24 h. The cells were washed twice with KRB supplemented with 0.2% BSA, and then incubated for 60 min at 37° C. in the KRB solution. […] The incubation medium was sampled and centrifuged to remove cells, and the supernatant was assayed for insulin levels.

ICR mice = test: Plasma insulin levels in ICR mice after intravenous injection; type: in vivo, mouse; settings: glucose 0.5 g/kg
Method: (§2) Measurement of Plasma Glucose and Plasma Insulin Levels: 7- to 8-week-old male ICR mice were purchased from Hyochang Science (Seoul, Korea). C57BLKSJ-db/db mice were purchased from SLC (Japan). […] Concentrations of plasma glucose were measured by the glucose oxidase method with a portable glucose meter (Gluco-Dr, Korea). Plasma was separated by centrifugation and the plasma insulin assay was performed using a RIA kit. Animal care was conducted in accordance with our institution's guidelines.

MIN6 cells [2] = test: [Ca2+]i measurement in MIN6 cells (Fluo-3 AM, confocal microscope); type: cell-based, mouse
Method: Changes in intracellular Ca2+ levels were monitored using a Ca2+-sensitive dye under a confocal microscope. Cells were loaded with […] Fluo-3 AM for 40 min at room temperature. After washing with Krebs-Ringer bicarbonate (KRB; 129 mM NaCl, 5 mM NaHCO3, 4.8 mM KCl, 1.2 mM KH2PO4, 1.0 mM CaCl2, 1.2 mM MgSO4, 2.7 mM glucose, and 10 mM HEPES, pH 7.4) buffer, the cells were further incubated for 15 min in the absence of Fluo-3 AM to de-esterify the dye. To exclude the possible effects of dye loading, the present inventors normalized levels with saponin at the end of the experiments. To normalize, the present inventors measured the residual fluorescence (Fo) at the end of the experiment, and subtracted that from the fluorescence under experimental conditions (F). Excitation of Fluo-3 AM was performed at 488-nm by an argon laser, and the emission range was 515-nm. Images were captured on an inverted confocal microscope (Zeiss LSM 510 Meta, Oberkochen, Germany) with a 20× objective lens. The MIN6 cells were plated onto glass dishes or 24-well plates and grown for 24 h. The cells were washed twice with KRB supplemented with 0.2% BSA, and then incubated for 60 min at 37° C. in the KRB solution. In FIG. 2A, at the end of incubation, the solutions were replaced with fresh KRB containing Fluo-3 AM dissolved (1 mg/ml) in DMSO, and incubated for 1 h. […] Images were captured on an inverted confocal microscope with a 20× objective lens. To normalize, the present inventors measured the residual fluorescence (Fo) at the end of the experiment, and subtracted that from the fluorescence under experimental conditions (F). The data shown are the mean±S.E., n=7.

mouse pancreatic islets = test: Insulin secretion assay in mouse pancreatic islets; type: cell-based; settings: 1 min treatment
Method: as §1
To prepare mouse pancreatic islets, pancreatic islets were isolated from 7- to 8-week-old male BALB/c mice (Hyochang Science, Korea), as described previously (Jonas J C, et al., Diabetes 47:1266-1273, 1998). Isolated islets were transferred onto a 12 well plate, with 10-15 islets per well. We used same number of islets in a same set of experiment. The islets were maintained for up to 2 days in RPMI1640 medium containing 5 mM glucose and 10% fetal calf serum, and supplemented with 100 µg/ml streptomycin and 100 U/ml penicillin.
The mouse pancreatic islets were plated onto 12-well plates and grown for 24 h. The islets were washed twice with KRB supplemented with 0.2% BSA, and then incubated for 60 min at 37° C. in the KRB solution. […]

C57BLKSJ-db/db mice [3] = test: Plasma glucose levels in obese db/db mice after intravenous injection; type: in vivo, mouse; settings: EGF 50 μg/kg intravenous
Method: as §2

RINm5F = test: Insulin release in RINm5F cell line (data not shown); type: cell-based
C57BLKSJ-db/db mice [4] = test: Plasma insulin levels in obese db/db mice after intravenous injection; type: in vivo, mouse; settings: EGF 50 μg/kg intravenous, 10 min after injection
Method: as §2
Plasma insulin levels before and 10 min after injection were compared. […] All animals had free access to water. Animal care was conducted in accordance with our institution's guidelines.

CC(=O)OCOC(=O)CN(CC(=O)OCOC(C)=O)c1ccccc1OCCOc1ccccc1N(CC(=O)OCOC(C)=O)CC(=O)OCOC(C)=O [BAPTA/AM, 1,2-Bis(2-aminophenoxy)ethane-N,N,N′,N′-tetraacetic acid tetrakis (acet-oxymethyl ester)]
effect on EGF-induced PLD activity (PLD): inhibited most of the PLD activity

CCCCO [1-butanol, reference compound]
effect on EGF-induced insulin secretion (MIN6 cells [1]; MIN6 cells): inhibited

O=C[C@H](O)[C@@H](O)[C@H](O)[C@H](O)CO [glucose, reference compound]
plasma insulin levels (ICR mice): increased plasma insulin levels | time required for Ca2+ influx (MIN6 cells [2]; data not shown): 3 to 4 min

CC(C)(C)O [t-butanol, reference compound]
effect on EGF-induced insulin secretion (MIN6 cells [1]; MIN6 cells): but not by t-butanol treatment

Epidermal growth factor [EGF]
insulin levels at basal concentration of glucose (MIN6 cells [1]; 2.7 mM glucose, 15 or 30 nM EGF, 5 min): increased insulin levels | glucose-induced insulin release at high glucose levels (MIN6 cells [1]; 11 mM glucose, 15 or 30 nM EGF, 5 min): additively increased glucose-induced insulin release | effective time of EGF treatment for insulin secretion (MIN6 cells [1]; MIN6 cells, 15 nM EGF): 1 to 2 min | kinetics of stimulation of insulin secretion (MIN6 cells [1]; MIN6 cells, 15 nM EGF compared with 11 mM glucose): kinetics more rapid than glucose | effective concentration of EGF for insulin secretion (MIN6 cells [1]; MIN6 cells, 1 min incubation): 1.5 to 15 nM | insulin secretion (MIN6 cells [1]; MIN6 cells, 1 min treatment): significantly increased insulin secretion | insulin secretion (mouse pancreatic islets; 15 nM EGF): rapidly increased insulin secretion | specificity of the insulin secretion effect among growth factors (mouse pancreatic islets; data not shown): specific among various growth factors | plasma glucose (C57BLKSJ-db/db mice [3]): reduced plasma glucose | time to PLD activation by EGF stimulation (PLD; 15 nM EGF): ≤ 2 min | insulin release (RINm5F): could stimulate insulin release | plasma insulin levels (C57BLKSJ-db/db mice [4]): increased plasma insulin levels | plasma insulin levels (ICR mice): increased plasma insulin levels | extracellular Ca2+ influx (MIN6 cells [2]; MIN6 cells, 15 nM EGF): stimulated extracellular Ca2+ influx

O=C(O)CN(CCOCCOCCN(CC(=O)O)CC(=O)O)CC(=O)O [EGTA]
effect on EGF-induced PLD activity (PLD): inhibited most of the PLD activity | effect on EGF-stimulated extracellular Ca2+ influx (MIN6 cells [2]; 30 min pre-incubation, then 15 nM EGF): reduced
